According to PubChem BioAssay (NCI):
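48-hour exposure; five concentrations; linearly interpolated endpoints. GI50 is the concentration that inhibits growth by half. TGI: concentration producing complete growth inhibition.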

Columns and labels:
Assay in all cases: NCI-60 cell line screen, 48 h
SK-MEL-2 melanoma = system: SK-MEL-2 melanoma
KM12 colon = system: KM12 colon
SW-620 colon = system: SW-620 colon
BT-549 breast = system: BT-549 breast
A498 renal = system: A498 renal
NCI-H460 lung = system: NCI-H460 lung
TK-10 renal = system: TK-10 renal
786-0 renal = system: 786-0 renal
NCI-H23 lung = system: NCI-H23 lung
SN12C renal = system: SN12C renal
MDA-MB-231 breast = system: MDA-MB-231 breast
SK-MEL-5 melanoma = system: SK-MEL-5 melanoma
OVCAR-3 ovarian = system: OVCAR-3 ovarian
MDA-MB-435 = system: MDA-MB-435
DU-145 prostate = system: DU-145 prostate
SF-268 CNS = system: SF-268 CNS
HOP-92 NSCLC = system: HOP-92 NSCLC
LOX IMVI melanoma = system: LOX IMVI melanoma
HS 578T breast = system: HS 578T breast
SK-OV-3 ovarian = system: SK-OV-3 ovarian
OVCAR-4 ovarian = system: OVCAR-4 ovarian
SF-295 CNS = system: SF-295 CNS
HCT-15 colon = system: HCT-15 colon
UO-31 renal = system: UO-31 renal
SF-539 CNS = system: SF-539 CNS
RPMI-8226 leukemia = system: RPMI-8226 leukemia
NCI-H226 lung = system: NCI-H226 lung
CAKI-1 renal = system: CAKI-1 renal
HCT-116 colon = system: HCT-116 colon
HOP-62 NSCLC = system: HOP-62 NSCLC
UACC-62 melanoma = system: UACC-62 melanoma
MALME-3M melanoma = system: MALME-3M melanoma
CCRF-CEM leukemia = system: CCRF-CEM leukemia
HCC-2998 colon = system: HCC-2998 colon
NCI-H522 lung = system: NCI-H522 lung
SK-MEL-28 melanoma = system: SK-MEL-28 melanoma
M14 melanoma = system: M14 melanoma
RXF 393 renal = system: RXF 393 renal
HT29 colon = system: HT29 colon
COLO 205 colon = system: COLO 205 colon
NCI/ADR-RES ovarian = system: NCI/ADR-RES ovarian
T-47D breast = system: T-47D breast
MCF7 breast = system: MCF7 breast
ACHN renal = system: ACHN renal
EKVX NSCLC = system: EKVX NSCLC
U251 CNS = system: U251 CNS
SNB-19 CNS = system: SNB-19 CNS
SNB-75 CNS = system: SNB-75 CNS
OVCAR-5 ovarian = system: OVCAR-5 ovarian
IGROV1 ovarian = system: IGROV1 ovarian
HL-60(TB) leukemia = system: HL-60(TB) leukemia
OVCAR-8 ovarian = system: OVCAR-8 ovarian
A549 NSCLC = system: A549 NSCLC
PC-3 prostate = system: PC-3 prostate
SR leukemia = system: SR leukemia
K-562 leukemia = system: K-562 leukemia
MOLT-4 leukemia = system: MOLT-4 leukemia

## CCCCCCCC/C(=C\C1=C(C)C(=O)C(OC)=C(OC)C1=O)C(=O)O
SK-MEL-2 melanoma
  GI50: > 100 µM
  TGI: > 100 µM
KM12 colon
  GI50: 53.5 µM
  TGI: > 100 µM
SW-620 colon
  GI50: 35 µM
  TGI: > 100 µM
BT-549 breast
  GI50: 24.2 µM
  TGI: 54.6 µM
A498 renal
  GI50: 78.8 µM
  TGI: > 100 µM
NCI-H460 lung
  GI50: 86.7 µM
  TGI: > 100 µM
TK-10 renal
  GI50: > 100 µM
  TGI: > 100 µM
786-0 renal
  GI50: 62.7 µM
  TGI: > 100 µM
NCI-H23 lung
  GI50: 57.7 µM
  TGI: > 100 µM
SN12C renal
  GI50: 0.198 µM
  TGI: 29.2 µM
MDA-MB-231 breast
  GI50: 21.4 µM
  TGI: 51.2 µM
SK-MEL-5 melanoma
  GI50: 36.7 µM
  TGI: > 100 µM
OVCAR-3 ovarian
  GI50: 34.1 µM
  TGI: > 100 µM
MDA-MB-435
  GI50: 18.8 µM
  TGI: 37 µM
DU-145 prostate
  GI50: 25.4 µM
  TGI: 94 µM
SF-268 CNS
  GI50: 29.5 µM
  TGI: 70.3 µM
HOP-92 NSCLC
  GI50: 13 µM
  TGI: 29.6 µM
LOX IMVI melanoma
  GI50: 19.9 µM
  TGI: 45.5 µM
HS 578T breast
  GI50: 23.8 µM
  TGI: 83.9 µM
SK-OV-3 ovarian
  GI50: > 100 µM
  TGI: > 100 µM
OVCAR-4 ovarian
  GI50: 19.9 µM
  TGI: 36.9 µM
SF-295 CNS
  GI50: 43 µM
  TGI: > 100 µM
HCT-15 colon
  GI50: 63.6 µM
  TGI: > 100 µM
UO-31 renal
  GI50: 40.3 µM
  TGI: > 100 µM
SF-539 CNS
  GI50: 23.2 µM
  TGI: 75.5 µM
RPMI-8226 leukemia
  GI50: 20.5 µM
  TGI: 49.9 µM
NCI-H226 lung
  GI50: 29.2 µM
  TGI: > 100 µM
CAKI-1 renal
  GI50: 51.2 µM
  TGI: > 100 µM
HCT-116 colon
  GI50: 16.3 µM
  TGI: 29.9 µM
HOP-62 NSCLC
  GI50: 73.2 µM
  TGI: > 100 µM
UACC-62 melanoma
  GI50: 33.8 µM
  TGI: > 100 µM
MALME-3M melanoma
  GI50: 51.3 µM
  TGI: > 100 µM
CCRF-CEM leukemia
  GI50: 20.2 µM
  TGI: 42.5 µM
HCC-2998 colon
  GI50: 66.2 µM
  TGI: > 100 µM
NCI-H522 lung
  GI50: 78.1 µM
  TGI: > 100 µM
SK-MEL-28 melanoma
  GI50: 43.4 µM
  TGI: > 100 µM
M14 melanoma
  GI50: > 100 µM
  TGI: > 100 µM
RXF 393 renal
  GI50: 23.7 µM
  TGI: 44.1 µM
HT29 colon
  GI50: 65.1 µM
  TGI: > 100 µM
COLO 205 colon
  GI50: > 100 µM
  TGI: > 100 µM
NCI/ADR-RES ovarian
  GI50: 27.1 µM
  TGI: 97.5 µM
T-47D breast
  GI50: 21.9 µM
  TGI: 48.8 µM
MCF7 breast
  GI50: 22.3 µM
  TGI: 44.8 µM
ACHN renal
  GI50: 29 µM
  TGI: > 100 µM
EKVX NSCLC
  GI50: 15.8 µM
  TGI: 31.6 µM
U251 CNS
  GI50: 19.9 µM
  TGI: 41.8 µM
SNB-19 CNS
  GI50: 75.9 µM
  TGI: > 100 µM
SNB-75 CNS
  GI50: 67.7 µM
  TGI: > 100 µM
OVCAR-5 ovarian
  GI50: > 100 µM
  TGI: > 100 µM

## COc1ccc(C(O)c2cc3c(N)c(C(=O)Nc4ccccc4)sc3nc2C)cc1 (stereo not drawn)
SK-MEL-2 melanoma
  GI50: 0.238 µM
  TGI: > 100 µM
KM12 colon
  GI50: 0.0403 µM
  TGI: > 100 µM
SW-620 colon
  GI50: 0.0391 µM
  TGI: > 100 µM
BT-549 breast
  GI50: 0.186 µM
  TGI: 36.4 µM
A498 renal
  GI50: 0.0262 µM
  TGI: 2.79 µM
NCI-H460 lung
  GI50: 0.0361 µM
  TGI: 11.1 µM
TK-10 renal
  GI50: 4.51 µM
  TGI: 49.8 µM
786-0 renal
  GI50: 0.0763 µM
  TGI: 25.3 µM
NCI-H23 lung
  GI50: 0.0754 µM
  TGI: > 50.1 µM
SN12C renal
  GI50: 0.0628 µM
  TGI: 29.5 µM
MDA-MB-231 breast
  GI50: 0.0728 µM
  TGI: 9.63 µM
SK-MEL-5 melanoma
  GI50: 0.0359 µM
  TGI: 0.591 µM
OVCAR-3 ovarian
  GI50: 0.0321 µM
  TGI: 1.27 µM
IGROV1 ovarian
  GI50: 0.094 µM
  TGI: 22.6 µM
DU-145 prostate
  GI50: 0.0414 µM
  TGI: 50.6 µM
SF-268 CNS
  GI50: 0.174 µM
  TGI: > 70 µM
HOP-92 NSCLC
  GI50: 0.0546 µM
  TGI: 12.1 µM
LOX IMVI melanoma
  GI50: 0.0539 µM
  TGI: > 100 µM
HS 578T breast
  GI50: 0.0305 µM
  TGI: 3.01 µM
HL-60(TB) leukemia
  GI50: 0.0324 µM
  TGI: 0.459 µM
SK-OV-3 ovarian
  GI50: 0.0539 µM
  TGI: 25.4 µM
OVCAR-4 ovarian
  GI50: 2.03 µM
  TGI: > 100 µM
SF-295 CNS
  GI50: 0.0352 µM
  TGI: 12.6 µM
HCT-15 colon
  GI50: 0.0403 µM
  TGI: > 100 µM
UO-31 renal
  GI50: 0.0706 µM
  TGI: 49.8 µM
SF-539 CNS
  GI50: 0.0348 µM
  TGI: 0.825 µM
RPMI-8226 leukemia
  GI50: 0.0416 µM
  TGI: > 100 µM
NCI-H226 lung
  GI50: 0.0579 µM
  TGI: 1.87 µM
CAKI-1 renal
  GI50: 0.0416 µM
  TGI: 20.7 µM
HCT-116 colon
  GI50: 0.0425 µM
  TGI: > 35.4 µM
OVCAR-8 ovarian
  GI50: 0.0636 µM
  TGI: > 100 µM
HOP-62 NSCLC
  GI50: 0.0774 µM
  TGI: 68.6 µM
UACC-62 melanoma
  GI50: 0.0397 µM
  TGI: 19.4 µM
A549 NSCLC
  GI50: 0.0628 µM
  TGI: > 100 µM
MALME-3M melanoma
  GI50: 0.051 µM
  TGI: 35.1 µM
CCRF-CEM leukemia
  GI50: 0.0383 µM
  TGI: > 100 µM
HCC-2998 colon
  GI50: 0.102 µM
  TGI: 3.79 µM
NCI-H522 lung
  GI50: 0.0347 µM
  TGI: 2.57 µM
PC-3 prostate
  GI50: 0.14 µM
  TGI: > 74.3 µM
M14 melanoma
  GI50: 0.0349 µM
  TGI: > 100 µM
SR leukemia
  GI50: 0.0333 µM
  TGI: > 100 µM
RXF 393 renal
  GI50: 0.0286 µM
  TGI: 0.911 µM
HT29 colon
  GI50: 0.0333 µM
  TGI: 8.6 µM
K-562 leukemia
  GI50: 0.0382 µM
  TGI: > 100 µM
COLO 205 colon
  GI50: 0.219 µM
  TGI: 1.8 µM
MOLT-4 leukemia
  GI50: 0.0508 µM
  TGI: > 100 µM
NCI/ADR-RES ovarian
  GI50: 0.0381 µM
  TGI: 2.02 µM
T-47D breast
  GI50: 0.0514 µM
  TGI: > 100 µM
MCF7 breast
  GI50: 0.0345 µM
  TGI: 19.3 µM
ACHN renal
  GI50: 0.0683 µM
  TGI: 27.5 µM
EKVX NSCLC
  GI50: 0.0617 µM
  TGI: > 100 µM
U251 CNS
  GI50: 0.0425 µM
  TGI: 29.7 µM
SNB-19 CNS
  GI50: 0.0443 µM
  TGI: 20.4 µM
SNB-75 CNS
  GI50: 0.0267 µM
  TGI: 21.9 µM
OVCAR-5 ovarian
  GI50: 0.0714 µM
  TGI: 25.4 µM
